The values below come from patent US11136291B2, “Antifungal compounds and uses thereof” (Dana-Farber Cancer Institute, Inc., priority 2016, dated 2021).

Converted amounts (≈) assume the structure as drawn. “Also recorded” adds a separate entry of the source. A value given as a limit tells only on which side of the number the result lay.

One data set relates to Candida albicans SC5314. In words: Broth dilution MIC. In general terms: In broth dilution the organism is exposed to a series of concentrations in liquid medium.
For a further data set, the system named is C. glabrata. In words: Mouse disseminated fungal burden model. The format is in vivo. Conditions: for fungal burden (CFU/g kidney): Cgpdr1 null strain (SFY93).
Data set [1] concerns Candida tropicalis DSY472. In words: Broth dilution MIC. The conditions noted are these: ATCC75.
Protocol: (§1) Antifungal susceptibility testing was carried out using broth dilution assays which examined effects of two-fold dilutions of compounds on cellular growth. The minimum inhibitory concentration (MIC) was defined as the drug concentration at which the optical density was equal to or decreased more than 50% from that of the drug-free culture.
In a further data set the test system is Candida glabrata DSY565. In words: Broth dilution MIC. The conditions noted are these: Nakaseomyces glabratus.
Data set [2] deals with ScPdr1 target genes (ScPDR5, ScSNQ2). In words: Transcription assay, quantitative real-time PCR of ScPdr1 target genes. In kind it is cell-based, Saccharomyces cerevisiae. The conditions noted are these: ketoconazole induced. How it is done: ChIP was performed according to standard procedures (see. e.g., McConnell A D, Gelbart M E, Tsukiyama T. Histone fold protein Dls1p is required for Isw2-dependent chromatin remodeling in vivo. Mol Cell Biol. 2004; 24(7):2605-13. PMCID: 371119). Briefly, cells were grown to saturation then washed 2 times with sterilized Milli-Q (Millipore) water, resuspended to an OD600 of 0.8 in YP (1% yeast extract, 2% bacto peptone) and then grown for 6 hours at 30° C. with shaking in the presence of DMSO (vehicle) or iKIX1. Cultures were induced with ketoconazole to a final concentration of 40 μM and harvested at the times indicated. 2 mL of culture was harvested at 0′ and 15′ for matched transcription samples; RNA was prepared as described below. Cells were fixed with 1% formaldehyde (final) for 15 minutes with swirling and then quenched with 125 mM glycine (final) for 5 min. with swirling. Cells were pelleted, washed with TBS+125 mM glycine and then TBS. Cells were lysed in buffer containing 50 mM HEPES, pH 7.5, 140 mM NaCl, 1% Triton X-100, 0.1% sodium deoxycholate, 1 mM EDTA and protease inhibitors and 0.5 mm glass beads. […]
For harvest and preparation of RNA. cells equivalent to an OD600 of 0.4 were centrifuged at 4,000 rpm for 4 minutes and then resuspended in 700 μL Trizol. […] Quantitative real-time PCR reactions were run and analyzed on a Roche LightCycler 480 system. […]
A general note: Quantitative PCR measures a nucleic acid by following its amplification.

A further data set deals with S. cerevisiae. In words: Cell growth inhibition screen with 5 μM ketoconazole. Conditions: in the presence of 5 μM ketoconazole.
The next data set has as its system SREBP-target genes. In words: Transcription of SREBP-target genes in HepG2 cells. In kind it is cell-based, Human. The conditions noted are these: concentrations up to 100 μM, 24 hours. How it is done: For transcription assays, HepG2 cells were seeded in MEM+10% FBS on 12-well poly-D-lysine-coated plates at a concentration of 175,000 cells per mL. After cells attached (4 hours), media was aspirated and iKIX1 was added in fresh MEM+10% FBS to final concentrations indicated. Cells were treated with iKIX1 for 24 hours before RNA was isolated using Trizol according to manufacturer's instructions. Quantitative real-time RT-PCR was carried out as described above.

Another data set has as its system HepG2 cells. In words: HepG2 cell viability (CellTiter-Glo). Conditions: 72 hours. The format is cell-based, Human. How it is done: HepG2 (ATCC HB-8065) cell viability was assessed using the CellTiter-Glo assay kit (Promega). HepG2 cells (N=4,500) were seeded in each well in 100 μL MEM+10% FBS in 96-well CellBIND (Corning) plates. After 24 hours, iKIX1 was added to final concentrations indicated for a final volume of 150 μL. HepG2 cells were incubated with iKIX1 for another 72 hours before CellTiter-Glo signal was assessed with an Envision 2103 Multilabel plate reader according to the manufacturer's instructions.
On the technique in general: ATP-based viability assays read luminescence as a measure of living cells.

Data set [3] concerns rhodamine 6G efflux in C. glabrata. In words: Rhodamine 6G efflux assay. The format is cell-based, Candida glabrata. Conditions: PDR1 wild-type or gain-of-function strains, iKIX1 pre-treatment vs vehicle. The procedure:
Cells were treated with vehicle or iKIX1 and grown with shaking for 16 hours. […] Untreated cells were placed on ice and not treated with ketoconazole or rhodamine 6G. All cells were placed on ice and washed twice with cold YP containing either 5 μM ketoconazole+vehicle (DMSO) or 5 μM ketoconazole+30 μM iKIX1 to remove excess rhodamine 6G. Cells were resuspended in room temperature YP with either 5 μM ketoconazole+vehicle (DMSO) or 5 μM ketoconazole+30 μM iKIX1 and 100 μL was transferred to a 96-well plate. An Envision 2103 Multilabel plate reader was used to assess RFU (relative fluorescence units; excitation 485, emission 535) over 60 minutes at 7.5 minute intervals. Efflux rate was calculated as RFU per second with 7.5 minute windows. Experiments were performed in triplicate, with duplicate readings for each sample; error bars indicate s.d.

Data set [4] deals with C. glabrata PDR1 wild-type or PDR1^L280F strains. In words: Galleria mellonella survival assay. In kind it is in vivo.
Data set [5] deals with Candida parapsilosis DSY473. In words: Broth dilution MIC. Conditions: ATCC22019.
Protocol: as §1
In data set [6] the test system is C. glabrata adherence to CHO-Lec2 cells. In words: Yeast adherence to epithelial CHO-Lec2 cells. The conditions noted are these: PDR1^L280F mutant; 30 μM iKIX1 or 40 μM ketoconazole.

Protocol for Candida albicans SC5314: as §1
Protocol for Candida glabrata DSY565: as §1
Protocol for S. cerevisiae: S. cerevisiae SEY6210 wild-type strains were grown in YPD (U % yeast extract, 2% bacto peptone, 2% dextrose) at 30° C. with shaking overnight until saturation. The next day, cultures were inoculated to an OD600 of 0.0007 and grown for 17 hours, to an OD600˜0.5, 384-well plates were set up in duplicate with either YPD alone or with YPD containing a final concentration of 5 μM ketoconazole. 384-well plates contained 5 two-fold dilutions of each compound, corresponding to a final concentration range of 20 μg/mL to 1.25 μg/mL. Wells were inoculated with cells to a final OD600 of 0.00025 in YPD.

A word on the MIC: it is the lowest concentration found to suppress growth. Low values mean greater potency, high ones weaker potency. As usually defined, the IC50 is the concentration needed to halve the response being measured. Take `N#CCC(=O)NNC(=S)Nc1ccc(Cl)c(Cl)c1` [iKIX1, 2-(2-Cyanoacetyl)-N-(3,4-dichlorophenyl)hydrazinecarbothioamide]: the MIC with Candida albicans SC5314 amounted to 12.5 µM (≈ 3.79 µg/mL); in data set [1], 6.25 µM (≈ 1.89 µg/mL); against Candida glabrata DSY565, 12.5 µM (≈ 3.79 µg/mL); in data set [5] it was 25 µM (≈ 7.58 µg/mL). Besides, in the data set with C. glabrata (CgPDR1^L280F strain, iKIX1 100 mg/kg with 100 mg/kg fluconazole, i.p. once daily, 7 days, P<0.0001), the “reductions in fungal burdens in the kidney and spleen” value is given as approximately 10 fold. In addition, the “fungal burden (CFU/g kidney)” value was “significantly reduces fungal burden; also recorded: more sensitive to iKIX1 alone” in the data set on C. glabrata (iKIX1 alone, 100 mg/kg/day) and “did not confer additional reductions in CFU/g kidney; also recorded: did not further reduce fungal burden” with C. glabrata (low iKIX1 (10 mg/kg/day) added to fluconazole, 10 mg/kg/day). For the same compound, the “tissue fungal burden in the kidney and spleen” value in the data set with C. glabrata ([…], iKIX1 100 mg/kg co-treatment with 100 mg/kg fluconazole) is on record as “did not result in further reductions”. Moreover, the “fungal tissue burdens in the spleen or kidney” value in the data set on C. glabrata ([…], iKIX1 combination with fluconazole) is recorded as “reduces fungal tissue burdens in the spleen or kidney”. Moreover, the “reductions in fungal burdens in both organs (kidney, spleen)” value in the data set with C. glabrata (mouse, in vivo, 25 mg/kg) is reported as approximately 10 fold. Further, the “azole-induced transcription of ScPdr1 target genes” value in [2] is given as “strongly inhibited azole-induced transcription of ScPdr1 target genes”. The cell growth entry in the data set with S. cerevisiae is listed as “inhibits cell growth in a concentration-dependent manner”. The “effect on transcription of SREBP-target genes” value with SREBP-target genes is reported as “no effect”. In addition, the “concentrations that inhibit viability of HepG2 cells” value in the data set with HepG2 cells was more than 50 µM. Besides, in the data set with HepG2 cells (Homo sapiens, HepG2, read-out: IC50, toxicity in HepG2 cells), the concentration for half-maximal inhibition (IC50) was approximately 100 µM. Also, the “maximum rhodamine 6G efflux rates” value in data set [3] was “Maximum efflux rates were significantly decreased”. Besides, the “survival of G. mellonella larvae” value in data set [4] ([…], fluconazole-iKIX1 combination) is recorded as “no significant alterations in survival”; in data set [4] ([…], single agent (fluconazole 50 mg/kg or iKIX1 25 mg/kg) vs vehicle), “did not significantly increase survival”; in data set [4] (in vivo) it was “significantly increased survival”. In addition, the “relative adherence to epithelial cells” value in data set [6] is on record as “reduce adherence; also recorded: reduced adherence to levels similar to a PDR1 wild-type strain”.
